Laboratory results as given in article PMC9225045, “Purification and Characterization of a Novel α-L-Rhamnosidase from Papiliotrema laurentii ZJU-L07 and Its Application in Production of Icariin from Epimedin C” (Journal of Fungi, 2022).
Read-outs that look alike come from different tables or passages of the source.

Tests used:
[1] = system: T1, α-L-rhamnosidase from P. laurentii ZJU-L07; conditions: 1.0-5.0 mM substrate; pH and temperature of the kinetic assay not stated separately
T1 construct: gene EC 3.2.1.40
From the text: Lineweaver-Burk; HPLC for epimedin C and icariin on α-L-rhamnosidase from P. laurentii ZJU-L07 | When epimedin C was used as a nature substrate to determine the kinetic parameters

[2] = system: T2, α-L-rhamnosidase from P. laurentii ZJU-L07; test: p-nitrophenol release at […] nm, Lineweaver-Burk; type: biochemical, Papiliotrema laurentii; conditions: pH 7.0 citric acid-Na2HPO4, 55 °C (standard assay); 2.0-10.0 mM substrate
T2 construct: gene EC 3.2.1.40; native intracellular enzyme purified from cells of the soil isolate (strain mutagenized by gamma rays and nitrosoguanidine); 100 kDa by SDS-PAGE

Structure (SMILES)	Km [1]	Km [2]
COc1ccc(-c2oc3c(CC=C(C)C)c(O[C@@H]4O[C@H](CO)[C@@H](O)[C@H](O)[C@H]4O)cc(O)c3c(=O)c2O[C@@H]2O[C@@H](C)[C@H](O)[C@@H](O)[C@H]2O[C@@H]2O[C@@H](C)[C@H](O)[C@@H](O)[C@H]2O)cc1 [epimedin C]	3280 µM	
C[C@@H]1O[C@@H](Oc2ccc([N+](=O)[O-])cc2)[C@H](O)[C@H](O)[C@H]1O [p-nitrophenyl-α-L-rhamnopyranoside]		1380 µM
